Results reported in patent US20250066379A1, “ANTIMALARIAL AGENTS” (Merck Sharp & Dohme LLC, priority 2021, published 2025).

System: parasite
Assay: Parasite LDH growth assay (Parasite Assay)
Assay type: cell-based, Plasmodium falciparum
Conditions: Plasmodium falciparum, 72 h, ring stage parasites, 72 hours growth at 37° C., LDH readout of parasite growth
Experimental: Assessing Antiparasite Potency in a Parasite LDH Growth Assay (Parasite Assay) The parasite stock was maintained at 4% haematocrit in RPMI-Hepes media 30 buffered with sodium bicarbonate and supplemented with 5% heat inactivated human serum and 0.5% albumax. Approximately 42 hours prior to the potency assay being set up, parasites were synchronized with 5% sorbitol to select for ring stage parasites. On the day of assay set up, a blood smear of the parasite culture was Giemsa stained and counted. The parasitemia was 35 adjusted to 0.7% rings and the haematocrit was diluted to 2% in RPMI-Hepes media buffered with sodium bicarbonate and supplemented with 5% heat inactivated human serum and 0.5% albumax. 30 ul of diluted parasites are then added into 10 μl of media+compound in pre-prepared Greiner TC assay plates. Parasite assay plates were placed in gassed humidified boxes in single layer and allowed to incubate at 37° C. for 72 hours. After 72 hours growth, assay plates are sealed with parafilm and frozen flat, in single file at −80° C. overnight. On the following day, assay plates were allowed to thaw at room temperature for 4 hours to which an LDH assay was performed to measure parasite growth.

**Q.** With `CCC12CCCCCc3ccc4c(c3)[C@H](CC(C)(C)O4)NC(=O)c3ccc4c(c3)[C@@H]([C@H](COC)CO4)N(C(=N)N1)C(=O)C2` (mixture of isomers) [Example 16B, rac-(1R,18S,27R)-5-ethyl-3-imino-27-(methoxymethyl)-16,16-dimethyl-15,25-dioxa-2,4,19-triazahexacyclo[19. 6.2.22,5.211,14.013, 18.024,28] tritriaconta-11,13,21,23,28,30-hexaene-20,33-dione] as the molecule, how does the EC50 read?
**A.** Its EC50 is 3.4 nM.

**Q.** With `CCC12CCCC3CC3c3ccc4c(c3)[C@H](CC(C)(C)O4)NC(=O)c3ccc4c(c3)[C@@H]([C@H](COC)CO4)N(C(=N)N1)C(=O)C2` (mixture of isomers) [Example 17, rac-(12R,13R,22S)-8-ethyl-10-imino-13-(methoxymethyl)-24,24-dimethyl-15,25-dioxa-9,11,21-triazaheptacyclo[20. 6.2.28,11.216,19.02, 4.012,17.026,30] tetratriaconta-1(29),16(32),17,19 (31),26(30),27-hexaene-20,33-dione] as the molecule, how does the EC50 read?
**A.** The EC50 was 18.9 nM.

**Q.** Which EC50 does the source give for `CC[C@]12CCC/C=C/c3ccc4c(c3)[C@H](CCO4)NC(=O)c3ccc4c(c3)[C@@H](CCO4)N(C(=N)N1)C(=O)C2` (racemic) [Example 18, rac-(1R,5R,9E,18S)-5-ethyl-3-imino-15,25-dioxa-2,4,19-triazahexacyclo[19. 6.2.22,5.211,14.013, 18.024,28] tritriaconta-9,11,13,21,23,28,30-heptaene-20,33-dione] here?
**A.** The EC50 was 6 nM.

**Q.** Which EC50 does the source give for `CC[C@]12CCCCCc3ccc4c(c3)[C@H](CCO4)NC(=O)c3ccc4c(c3)[C@@H](CCO4)N(C(=N)N1)C(=O)C2` (racemic) [Example 19, rac-(1R,5R,18S)-5-ethyl-3-imino-15,25-dioxa-2,4,19-triazahexacyclo[19. 6.2.22,5.211,14.013, 18.024,28] tritriaconta-11,13,21,23,28,30-hexaene-20,33-dione] here?
**A.** The EC50 was 4.8 nM.

**Q.** How did the EC50 turn out when `CCC12CC/C=C/c3ccc4c(c3)[C@H](CC(C)(C)O4)NC(=O)c3ccc4c(c3)[C@@H](CCO4)N(C(=N)N1)C(=O)C2` (mixture of isomers) [Example 20, rac-(1R,8E,17S)-5-ethyl-3-imino-15,15-dimethyl-14,24-dioxa-2,4,18-triazahexacyclo[18. 6.2.22,5.210,13.012, 17.023,27] dotriaconta-8,10,12,20,22,27,29-heptaene-19,32-dione] was run?
**A.** The EC50 was 3.6 nM.

**Q.** `CC[C@]12CCCC3CC3c3ccc4c(c3)[C@H](CCO4)NC(=O)c3ccc4c(c3)[C@@H](CCO4)N(C(=N)N1)C(=O)C2` (mixture of isomers) [Example 21, rac-(8R,12R,22S)-8-ethyl-10-imino-15,25-dioxa-9,11,21-triazaheptacyclo[20. 6.2.28,11.216,19.02, 4.012,17.026,30] tetratriaconta-1(29),16(32),17,19 (31),26(30),27-hexaene-20,33-dione] was tested. Which EC50 did it give?
**A.** Its EC50 is 5.1 nM.

**Q.** Which EC50 does the source give for `CC[C@]12CCCCCc3ccc4c(c3)OC(C)(C)C[C@@H]4NC(=O)c3ccc4c(c3)[C@@H](CCO4)N(C(=N)N1)C(=O)C2` (racemic) [Example 22, rac-(1R,5R,19S)-5-ethyl-3-imino-17,17-dimethyl-16,26-dioxa-2,4,20-triazahexacyclo[20. 6.2.22,5.111,15.014, 19.025,29] tritriaconta-11(31),12,14,22,24, 29-hexaene-21,33-dione] here?
**A.** The EC50 was 57.4 nM.

**Q.** `CCC12CCCCC/C=C\c3ccc4c(c3)OC(C)(C)C[C@@H]4NC(=O)c3ccc4c(c3)[C@@H](CCO4)N(C(=N)N1)C(=O)C2` (racemic) [Example 23, rac-(1R,11Z,21S)-5-ethyl-3-imino-19,19-dimethyl-18,28-dioxa-2,4,22-triazahexacyclo[22. 6.2.22,5.113,17.016, 21.027,31] pentatriaconta-11,13(33),14,16,24, 26,31-heptaene-23,35-dione] was tested. Which EC50 did it give?
**A.** The EC50 was 7.5 nM.

**Q.** How did the EC50 turn out when `CC[C@]12CCCC(C)c3ccc4c(c3)[C@@H](NC(=O)c3ccc5c(c3)[C@@H](CCO5)N(C(=N)N1)C(=O)C2)[C@H](O)C4` (stereo partly drawn) [Example 1, (1R,5R,15R,16R)-5-ethyl-15-hydroxy-3-imino-9-methyl-23-oxa-2,4,17-triazahexacyclo[17.6.2.22,5.210,13.012,16.022,26]hentriaconta-10,12,19,21,26,28-hexaene-18,31-dione] was run?
**A.** The EC50 was 2.7 nM.

**Q.** `CC[C@]12CCCCCc3ccc4c(c3)[C@@H](NC(=O)c3ccc5c(c3)[C@@H](CCO5)N(C(=N)N1)C(=O)C2)[C@H](O)C4` [Example 2, (1R,5R,16R,17R)-5-ethyl-16-hydroxy-3-imino-24-oxa-2,4,18-triazahexacyclo[18.6.2.22,5.211,14.013,17.023,27]dotriaconta-11,13,20,22,27,29-hexaene-19,32-dione] was tested. Which EC50 did it give?
**A.** Its EC50 is 11 nM.

**Q.** For `CC[C@]12CCCCc3ccc4c(c3)[C@H](CC(C)(C)O4)NC(=O)c3ccc4c(c3)[C@@H](CCO4)N(C(=N)N1)C(=O)C2` [Example 3A, (1R,5R,17S)-5-ethyl-3-imino-15,15-dimethyl-14,24-dioxa-2,4,18-triazahexacyclo[18.6.2.22,5.210,13.012,17.023,27]dotriaconta-10,12,20,22,27,29-hexaene-19,32-dione], which EC50 is on record?
**A.** The EC50 was 0.2 nM.

**Q.** For `CC[C@@]12CCCCc3ccc4c(c3)[C@H](CC(C)(C)O4)NC(=O)c3ccc4c(c3)[C@@H](CCO4)N(C(=N)N1)C(=O)C2` [Example 3B, (1R,5S,17S)-5-ethyl-3-imino-15,15-dimethyl-14,24-dioxa-2,4,18-triazahexacyclo[18. 6.2.22,5.210,13.012, 17.023,27] dotriaconta-10,12,20,22,27,29-hexaene-19,32-dione], which EC50 is on record?
**A.** Its EC50 is 270 nM.

**Q.** With `CC[C@]12CCCCOc3ccc4c(c3)[C@H](CC(C)(C)O4)NC(=O)c3ccc4c(c3)[C@@H](CCO4)N(C(=N)N1)C(=O)C2` [Example 4, (1R,5R,18S)-5-ethyl-3-imino-16,16-dimethyl-10,15,25-trioxa-2,4,19-triazahexacyclo[19.6.2.22,5.211,14.013,18.024,28]tritriaconta-11,13,21,23,28,30-hexaene-20,33-dione] as the molecule, how does the EC50 read?
**A.** Its EC50 is 2 nM.

**Q.** `CC[C@]12CCC/C=C/c3ccc4c(c3)[C@@H](NC(=O)c3ccc5c(c3)[C@@H](CCO5)N(C(=N)N1)C(=O)C2)[C@H](O)C4` [Example 5, (1R,5R,9E,16R, 17R)-5-ethyl-16-hydroxy-3-imino-24-oxa-2,4,18-triazahexacyclo[18. 6.2.22,5.211,14.013, 17.023,27] dotriaconta-9,11,13,20,22,27, 29-heptaene-19,32-dione] was tested. Which EC50 did it give?
**A.** Its EC50 is 0.9 nM.

Same assay, conditions: ring stage parasites, 72 hours growth at 37° C., LDH readout of parasite growth

**Q.** With `CCC12CCCCCCCc3ccc4c(c3)OC(C)(C)C[C@@H]4NC(=O)c3ccc4c(c3)[C@@H](CCO4)N(C(=N)N1)C(=O)C2` (racemic) [Example 24A, rac-(1R,21S)-5-ethyl-3-imino-19,19-dimethyl-18,28-dioxa-2,4,22-triazahexacyclo[22. 6.2.22,5.113,17.016, 21.027,31] pentatriaconta-13(33),14,16,24,26, 31-hexaene-23,35-dione] as the molecule, how does the EC50 read?
**A.** The EC50 was 5.4 nM.

**Q.** Which EC50 does the source give for `CCC12CCCCCCCc3ccc4c(c3)OC(C)(C)C[C@@H]4NC(=O)c3ccc4c(c3)[C@@H](CCO4)N(C(=N)N1)C(=O)C2` (racemic) [Example 24B, rac-(1R,21S)-5-ethyl-3-imino-19,19-dimethyl-18,28-dioxa-2,4,22-triazahexacyclo[22. 6.2.22,5.113,17.016, 21.027,31] pentatriaconta-13(33),14,16,24,26, 31-hexaene-23,35-dione] here?
**A.** The EC50 was 2 nM.

**Q.** With `COC[C@@H]1COc2ccc3cc2[C@@H]1N1C(=N)NC(C)(CCCCCc2ccc4c(c2)[C@H](CC(C)(C)O4)NC3=O)CC1=O` (mixture of isomers) [Example 25A, rac-(1R,18S,27R)-3-imino-27-(methoxymethyl)-5,16,16-trimethyl-15,25-dioxa-2,4,19-triazahexacyclo[19. 6.2.22,5.211,14.013, 18.024,28] tritriaconta-11,13,21,23,28,30-hexaene-20,33-dione] as the molecule, how does the EC50 read?
**A.** Its EC50 is 23 nM.

**Q.** Which EC50 does the source give for `COC[C@@H]1COc2ccc3cc2[C@@H]1N1C(=N)NC(C)(CCCCCc2ccc4c(c2)[C@H](CC(C)(C)O4)NC3=O)CC1=O` (mixture of isomers) [Example 25B, rac-(1R,18S,27R)-3-imino-27-(methoxymethyl)-5,16,16-trimethyl-15,25-dioxa-2,4,19-triazahexacyclo[19. 6.2.22,5.211,14.013, 18.024,28] tritriaconta-11,13,21,23,28,30-hexaene-20,33-dione] here?
**A.** Its EC50 is 0.7 nM.

**Q.** How did the EC50 turn out when `CCC12CCC/C=C/c3ccc4c(c3)[C@H](CC(C)(C)O4)NC(=O)c3ccc4c(c3)[C@@H]([C@H](COC)CO4)N(C(=N)N1)C(=O)C2` (mixture of isomers) [Example 26A, rac-(1R,9E,18S,27R)-5-ethyl-3-imino-27-(methoxymethyl)-16,16-dimethyl-15,25-dioxa-2,4,19-triazahexacyclo[19. 6.2.22,5.211,14.013, 18.024,28] tritriaconta-9,11,13,21,23,28,30-heptaene-20,33-dione] was run?
**A.** The EC50 was 190 nM.

**Q.** With `CCC12CCC/C=C/c3ccc4c(c3)[C@H](CC(C)(C)O4)NC(=O)c3ccc4c(c3)[C@@H]([C@H](COC)CO4)N(C(=N)N1)C(=O)C2` (mixture of isomers) [Example 26B, rac-(1R,9E,18S,27R)-5-ethy1-3-imino-27-(methoxymethyl)-16,16-dimethyl-15,25-dioxa-2,4,19-triazahexacyclo[19. 6.2.22,5.211,14.013, 18.024,28] tritriaconta-9,11,13,21,23,28,30-heptaene-20,33-dione] as the molecule, how does the EC50 read?
**A.** The EC50 was 7.4 nM.

**Q.** Which EC50 does the source give for `CCC12CCCCCc3ccc4c(c3)[C@@H](NC(=O)c3ccc5c(c3)[C@@H]([C@H](COC)CO5)N(C(=N)N1)C(=O)C2)[C@H](O)C4` (single isomer, unassigned) [Example 15A] here?
**A.** The EC50 was 9.2 nM.

**Q.** Which EC50 does the source give for `CCC12CCCCCc3ccc4c(c3)[C@@H](NC(=O)c3ccc5c(c3)[C@@H]([C@H](COC)CO5)N(C(=N)N1)C(=O)C2)[C@H](O)C4` (single isomer, unassigned) [Example 15B] here?
**A.** The EC50 was 81 nM.
